Calls of active or inactive are those of the source. The calls are words filed in the database; no cut-off is given here.
What was measured:
MCF7 [1] = test: Antiproliferative activity against human MCF7 cells at 5 uM after 72 hrs in presence of serotonin by MTT assay; assay type: functional, cell-based
[2] = target: 5-hydroxytryptamine receptor 2A (Homo sapiens) (UniProt P28223); test: Antagonist activity at 5-HT2A receptor in human MCF7 cells assessed as inhibition of serotonin-induced calcium flux at 5 uM measured at 5 secs time interval for 2 mins by Fluo-4AM dye based fluorescence microscopic analysis; assay type: functional, cell-based
MCF7 [3] = test: Antiproliferative activity against human MCF7 cells at 5 uM after 72 hrs by MTT assay; assay type: functional, cell-based
MCF7 [4] = test: Antiproliferative activity against human MCF7 cells after 72 hrs by MTT assay; assay type: functional, cell-based; conditions: MCF7, 72 h
[5] = Cytotoxicity against HEK293 cells assessed as reduction in cell viability after 72 hrs by MTT assay; assay type: cell-based; conditions: human, read-out: LD50
MCF7 [6] = test: Induction of apoptosis in human MCF7 cells at 5 uM after 48 hrs by Annexin V-FITC/propidium iodide staining based flow cytometry; assay type: functional, cell-based
MCF7 [7] = test: Cell cycle arrest in human MCF7 cells assessed as accumulation at G2/M phase after 48 hrs by propidium iodide staining based flow cytometry; assay type: functional
MCF7 [8] = test: Cell cycle arrest in human MCF7 cells assessed as accumulation at sub-G0/G1 phase after 48 hrs by propidium iodide staining based flow cytometry; assay type: functional
MCF7 [9] = test: Cell cycle arrest in human MCF7 cells assessed as accumulation at G1/S phase after 48 hrs by propidium iodide staining based flow cytometry; assay type: functional
[10] = target: 5-hydroxytryptamine receptor 2A (Homo sapiens) (UniProt P28223); test: Antagonist activity at 5-HT2A receptor in human MCF7 cells assessed as reduction in ERK1/2 phosphorylation at 5 uM after 24 to 48 hrs by Western blot analysis relative to control; assay type: functional, cell-based
MCF7 [11] = test: Induction of morphological changes in human MCF7 cells assessed as loss in cellular integrity at 5 uM after 72 hrs; assay type: functional, cell-based
MCF7 [12] = test: Induction of apoptosis in human MCF7 cells assessed as early apoptotic cells at 5 uM after 48 hrs by Annexin V-FITC/propidium iodide staining based flow cytometry; assay type: functional, cell-based
MCF7 [13] = test: Induction of morphological changes in human MCF7 cells assessed as cell detachment at 5 uM after 72 hrs; assay type: functional, cell-based

Sequence of 5-hydroxytryptamine receptor 2A (Homo sapiens) (P28223 whole entry): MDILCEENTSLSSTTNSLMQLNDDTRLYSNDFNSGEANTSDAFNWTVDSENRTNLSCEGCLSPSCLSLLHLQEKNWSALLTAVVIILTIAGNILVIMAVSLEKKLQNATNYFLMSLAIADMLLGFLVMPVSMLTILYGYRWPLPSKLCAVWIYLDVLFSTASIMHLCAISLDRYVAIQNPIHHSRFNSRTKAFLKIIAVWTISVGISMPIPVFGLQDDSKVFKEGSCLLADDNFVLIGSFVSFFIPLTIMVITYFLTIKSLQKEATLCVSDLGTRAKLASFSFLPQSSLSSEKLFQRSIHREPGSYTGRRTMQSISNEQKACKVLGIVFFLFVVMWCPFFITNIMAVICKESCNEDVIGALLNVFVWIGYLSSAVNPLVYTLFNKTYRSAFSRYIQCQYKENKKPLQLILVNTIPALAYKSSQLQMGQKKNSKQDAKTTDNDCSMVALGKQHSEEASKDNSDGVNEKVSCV

Compound	Activity (MCF7 [1])	inhibition [2]	Activity (MCF7 [3])	IC50 (MCF7 [4]) [µM]	CC50 at 72 h [5] [µM]	Activity (MCF7 [6])	Activity (MCF7 [7])	Activity (MCF7 [8])	Activity (MCF7 [9])	inhibition [10] [%]	Activity (MCF7 [11])	Activity (MCF7 [12])	Activity (MCF7 [13])
CCN1CCN(c2nc3ccccc3c(-c3ccccc3)c2-c2ccccc2)CC1	inactive	Active	Active	7.48	> 24								
CCN1CCN(c2nc3ccccc3c(-c3ccccc3)c2C)CC1	inactive	Active	Active	6.15	> 24	Active	inactive	Active	inactive	> 50	Active	Active	Active
Cc1c(N2CCN(C)CC2)nc2ccccc2c1-c1ccccc1		Active											
